Test results reported in ChEMBL document CHEMBL1201862, “PubChem BioAssay data set” (2004).
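Step 1: Grow cells in 96-well plates. Step 2: Expose to compound for 48 hours at 5 concentrations. Step 3: Interpolate endpoints linearly; if unreached, use highest concentration. GI50: concentration for 50% inhibition of growth.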 Calls of active or inactive are those of the source. Rule as the data show it: active = GI50 up to about 1.1 µM and inactive = higher.

Tests used:
Test in all cases: NCI-60 cell line screen, 48 h
[1] = test system: RXF 393
[2] = test system: HT-29
[3] = test system: MCF7
[4] = test system: A498
[5] = test system: M14
[6] = test system: NCI/ADR-RES
[7] = test system: K562
[8] = test system: TK-10
[9] = test system: COLO 205
[10] = test system: UO-31
[11] = test system: OVCAR-5
[12] = test system: SF-268
[13] = test system: HOP-62
[14] = test system: SN12C
[15] = test system: RPMI-8226
[16] = test system: HCC 2998
[17] = test system: SR
[18] = test system: ACHN
[19] = test system: KM12
[20] = test system: SW-620
[21] = test system: MDA-N
[22] = test system: SF-295
[23] = test system: DU-145
[24] = test system: OVCAR-3
[25] = test system: HL-60
[26] = test system: NCI-H226
[27] = test system: SNB-19
[28] = test system: OVCAR-8
[29] = test system: NCI-H460
[30] = test system: OVCAR-4
[31] = test system: CCRF-CEM
[32] = test system: BT-549
[33] = test system: SK-MEL-2
[34] = test system: SNB-75
[35] = test system: EKVX
[36] = test system: UACC-62
[37] = test system: A549
[38] = test system: NCI-H522
[39] = test system: SK-MEL-5
[40] = test system: MOLT-4
[41] = test system: SF-539
[42] = test system: Malme-3M
[43] = test system: PC-3
[44] = test system: UACC-257
[45] = test system: HCT-116
[46] = test system: 786-0
[47] = test system: MDA-MB-435
[48] = test system: NCI-H23
[49] = test system: MDA-MB-231
[50] = test system: HCT-15
[51] = test system: HOP-92
[52] = test system: U-251
[53] = test system: CAKI-1
[54] = test system: Hs-578T
[55] = test system: IGROV-1
[56] = test system: SK-OV-3
[57] = test system: T47D
[58] = test system: LOX IMVI
[59] = test system: SK-MEL-28

SMILES: C[C@]12C[C@@H](c3ccccc3)Nc3ccccc3N1C(c1ccccc1)=NO2
- GI50 [1]: 51.6 µM (inactive)
- GI50 [2]: 30.6 µM (inactive)
- GI50 [3]: 31 µM (inactive)
- GI50 [4]: 43.3 µM (inactive)
- GI50 [5]: 32.5 µM (inactive)
- GI50 [6]: 45.1 µM (inactive)
- GI50 [7]: 35.4 µM (inactive)
- GI50 [8]: 34.4 µM (inactive)
- GI50 [9]: 19 µM (inactive)
- GI50 [10]: 29.6 µM (inactive)
- GI50 [11]: 33.2 µM (inactive)
- GI50 [12]: 88.5 µM (inactive)
- GI50 [13]: 77.1 µM (inactive)
- GI50 [14]: 49.3 µM (inactive)
- GI50 [15]: 20.3 µM (inactive)
- GI50 [16]: 81.3 µM (inactive)
- GI50 [17]: 1.8 µM (inactive)
- GI50 [18]: 33.9 µM (inactive)
- GI50 [19]: 33.6 µM (inactive)
- GI50 [20]: 61.1 µM (inactive)
- GI50 [21]: 26.2 µM (inactive)
- GI50 [22]: 16 µM (inactive)
- GI50 [23]: 92.3 µM (inactive)
- GI50 [24]: 46.8 µM (inactive)
- GI50 [25]: 46.2 µM (inactive)
- GI50 [26]: 32.4 µM (inactive)
- GI50 [27]: 89.7 µM (inactive)
- GI50 [28]: 36.1 µM (inactive)
- GI50 [29]: 52.1 µM (inactive)
- GI50 [30]: 24.9 µM (inactive)
- GI50 [31]: 35.9 µM (inactive)
- GI50 [32]: 40.9 µM (inactive)
- GI50 [33]: 25.6 µM (inactive)
- GI50 [34]: 16.6 µM (inactive)
- GI50 [35]: 24.3 µM (inactive)
- GI50 [36]: 33.4 µM (inactive)
- GI50 [37]: 54.3 µM (inactive)
- GI50 [38]: 35.9 µM (inactive)
- GI50 [39]: 16.1 µM (inactive)
- GI50 [40]: 18 µM (inactive)
- GI50 [41]: 33.4 µM (inactive)
- GI50 [42]: 42.9 µM (inactive)
- GI50 [43]: 43 µM (inactive)
- GI50 [44]: 33.8 µM (inactive)
- GI50 [45]: 37.9 µM (inactive)
- GI50 [46]: 56.6 µM (inactive)
- GI50 [47]: 24.5 µM (inactive)
- GI50 [48]: 30.7 µM (inactive)
- GI50 [49]: 45.5 µM (inactive)
- GI50 [50]: 35.4 µM
- GI50 [51]: 18.5 µM (inactive)
- GI50 [52]: 44.2 µM (inactive)
- GI50 [53]: 37.1 µM (inactive)
- GI50 [54]: 77.8 µM (inactive)
- GI50 [55]: 38.1 µM (inactive)
- GI50 [56]: > 100 µM (inactive)

SMILES: COC(=O)/C=C/c1ccccc1N=[S@](C)(=O)c1ccc(C)cc1
- GI50 [1]: 13.2 µM (inactive)
- GI50 [2]: 7.93 µM (inactive)
- GI50 [3]: 13.4 µM (inactive)
- GI50 [4]: 8.41 µM (inactive)
- GI50 [5]: 12.6 µM (inactive)
- GI50 [6]: 7.13 µM (inactive)
- GI50 [7]: 4.09 µM (inactive)
- GI50 [8]: 22.4 µM (inactive)
- GI50 [9]: 8.34 µM (inactive)
- GI50 [10]: 50.4 µM (inactive)
- GI50 [11]: 36.1 µM (inactive)
- GI50 [12]: 29.4 µM (inactive)
- GI50 [13]: 24.2 µM (inactive)
- GI50 [14]: 34.9 µM (inactive)
- GI50 [15]: 18 µM (inactive)
- GI50 [16]: 24.2 µM (inactive)
- GI50 [17]: 3.49 µM (inactive)
- GI50 [18]: 32.6 µM (inactive)
- GI50 [19]: 8.53 µM (inactive)
- GI50 [20]: 8.89 µM (inactive)
- GI50 [22]: 5.96 µM (inactive)
- GI50 [23]: 29.1 µM (inactive)
- GI50 [24]: 14.6 µM (inactive)
- GI50 [25]: 2.32 µM (inactive)
- GI50 [26]: 36.1 µM (inactive)
- GI50 [57]: 31.8 µM (inactive)
- GI50 [27]: 19.1 µM (inactive)
- GI50 [28]: 28.5 µM (inactive)
- GI50 [29]: 18.4 µM (inactive)
- GI50 [30]: 26.1 µM (inactive)
- GI50 [58]: 23.5 µM (inactive)
- GI50 [31]: 11.5 µM (inactive)
- GI50 [32]: 33 µM (inactive)
- GI50 [33]: 21.8 µM (inactive)
- GI50 [34]: 6.21 µM (inactive)
- GI50 [35]: 37.4 µM (inactive)
- GI50 [36]: 8.24 µM (inactive)
- GI50 [37]: 27.9 µM (inactive)
- GI50 [38]: 2.86 µM (inactive)
- GI50 [39]: 5.62 µM (inactive)
- GI50 [40]: 19.8 µM (inactive)
- GI50 [59]: 16.4 µM (inactive)
- GI50 [41]: 21.8 µM (inactive)
- GI50 [42]: 14 µM (inactive)
- GI50 [43]: 13.4 µM (inactive)
- GI50 [44]: 8.85 µM (inactive)
- GI50 [45]: 15.3 µM (inactive)
- GI50 [46]: 27.9 µM (inactive)
- GI50 [47]: 3.54 µM (inactive)
- GI50 [48]: 28.1 µM (inactive)
- GI50 [49]: 23.8 µM (inactive)
- GI50 [50]: 6.14 µM
- GI50 [51]: 35 µM (inactive)
- GI50 [52]: 17.7 µM (inactive)
- GI50 [53]: 15 µM (inactive)
- GI50 [54]: 18.7 µM (inactive)
- GI50 [55]: 18 µM (inactive)
- GI50 [56]: 30.3 µM (inactive)

SMILES: Cc1c(F)c(N)c2c(=O)cc(-c3ccc(NC(=O)[C@@H](N)CCCCN)c(F)c3)oc2c1F
- GI50 [1]: 16.1 µM (inactive)
- GI50 [2]: 14.3 µM (inactive)
- GI50 [3]: 0.0399 µM (active)
- GI50 [4]: 0.057 µM (active)
- GI50 [5]: 20.7 µM (inactive)
- GI50 [6]: 20.4 µM (inactive)
- GI50 [8]: 0.239 µM (active)
- GI50 [10]: 14.8 µM (inactive)
- GI50 [12]: 12.8 µM (inactive)
- GI50 [13]: 12.3 µM (inactive)
- GI50 [14]: 14.9 µM (inactive)
- GI50 [18]: 16.2 µM (inactive)
- GI50 [19]: 8.95 µM (inactive)
- GI50 [21]: 12.5 µM (inactive)
- GI50 [22]: 13.2 µM (inactive)
- GI50 [23]: 14.5 µM (inactive)
- GI50 [57]: 0.0942 µM (active)
- GI50 [27]: 27 µM (inactive)
- GI50 [28]: 13.7 µM (inactive)
- GI50 [29]: 0.132 µM (active)
- GI50 [58]: 16.3 µM (inactive)
- GI50 [31]: 5.07 µM (inactive)
- GI50 [32]: 23.6 µM (inactive)
- GI50 [33]: 17.5 µM (inactive)
- GI50 [35]: 11 µM (inactive)
- GI50 [59]: 18.5 µM (inactive)
- GI50 [43]: 16.6 µM (inactive)
- GI50 [44]: 0.209 µM (active)
- GI50 [45]: 5.16 µM (inactive)
- GI50 [46]: 7.48 µM (inactive)
- GI50 [47]: 8.65 µM (inactive)
- GI50 [49]: 16.3 µM (inactive)
- GI50 [50]: 14 µM
- GI50 [51]: 26.7 µM (inactive)
- GI50 [55]: 0.0532 µM (active)
- GI50 [56]: 15.3 µM (inactive)

SMILES: CCc1[nH]c(=O)c2oc3cc4ccccc4cc3c2c1C(=O)O
- GI50 [1]: > 10 µM (inactive)
- GI50 [2]: > 10 µM (inactive)
- GI50 [5]: > 10 µM (inactive)
- GI50 [6]: > 10 µM (inactive)
- GI50 [8]: > 10 µM (inactive)
- GI50 [10]: > 10 µM (inactive)
- GI50 [11]: > 10 µM (inactive)
- GI50 [12]: > 10 µM (inactive)
- GI50 [14]: > 10 µM (inactive)
- GI50 [16]: > 10 µM (inactive)
- GI50 [17]: > 10 µM (inactive)
- GI50 [18]: > 10 µM (inactive)
- GI50 [19]: > 10 µM (inactive)
- GI50 [20]: > 10 µM (inactive)
- GI50 [22]: > 10 µM (inactive)
- GI50 [23]: 3.91 µM (inactive)
- GI50 [24]: > 10 µM (inactive)
- GI50 [25]: > 10 µM (inactive)
- GI50 [26]: > 10 µM (inactive)
- GI50 [27]: > 10 µM (inactive)
- GI50 [28]: > 10 µM (inactive)
- GI50 [29]: > 10 µM (inactive)
- GI50 [30]: > 10 µM (inactive)
- GI50 [58]: > 10 µM (inactive)
- GI50 [32]: > 10 µM (inactive)
- GI50 [33]: > 10 µM (inactive)
- GI50 [34]: > 10 µM (inactive)
- GI50 [35]: > 10 µM (inactive)
- GI50 [37]: > 10 µM (inactive)
- GI50 [38]: > 10 µM (inactive)
- GI50 [41]: > 10 µM (inactive)
- GI50 [42]: > 10 µM (inactive)
- GI50 [43]: > 10 µM (inactive)
- GI50 [44]: > 10 µM (inactive)
- GI50 [45]: > 10 µM (inactive)
- GI50 [46]: > 10 µM (inactive)
- GI50 [49]: 0.00588 µM (active)
- GI50 [50]: > 10 µM
- GI50 [51]: > 10 µM (inactive)
- GI50 [54]: > 10 µM (inactive)
- GI50 [55]: 0.001 µM (active)
